This note sets out measurements from article PMC7662385, “New Fluorene Derivatives from Dendrobium gibsonii and Their α-Glucosidase Inhibitory Activity” (Molecules, 2020).

Structures are written as SMILES. Read-outs that look alike come from different tables or passages of the source.

Experiment [1] deals with α-glucosidase. Kind of experiment: α-glucosidase enzyme kinetic study (Lineweaver–Burk and secondary plots). Type of experiment: biochemical, Yeast. The note with it: for mode of α-glucosidase inhibition: Lineweaver–Burk plots. On the procedure: Further investigation was conducted on compound 2 to study its kinetic properties with regard to the enzyme α-glucosidase using varying concentrations of the substrate.
(§1) The α-glucosidase inhibition assay was performed according to previous protocols. The assay was based on the release of p-nitrophenol from p-nitrophenol-α-D-glucopyranoside (substrate). The test samples were prepared by dissolving in 50% DMSO. […] The sample solution (10 μL) and 0.1 U/mL α-glucosidase (40 μL) in phosphate buffer (pH 6.8) were added to a 96-well plate. The mixture was preincubated at 37 °C for 10 min before adding 2 mM p-nitrophenol-α-D-glucopyranoside (50 μL). Then, the reaction was incubated again at 37 °C for 20 min. Finally, 1 M Na2CO3 solution (100 μL) was added to stop the reaction. The absorbance of the mixture was determined using a microplate reader at 405 nm.
An enzyme kinetic study was conducted based on the α-glucosidase assay as mentioned above. […] The inhibition mode was determined by double-reciprocal Lineweaver–Burk plot (1/V vs. 1/[S]). In order to estimate the Ki value, slopes of double-reciprocal lines were used to construct a secondary plot, and the Ki was calculated from the line equation of the plot.

In experiment [2] the target is α-glucosidase. Nature of the experiment: α-glucosidase inhibition assay (p-nitrophenol release from p-nitrophenol-α-D-glucopyranoside). To be noted: two-fold serial dilution; acarbose positive control; read-out: α-glucosidase inhibitory activity IC50. Type of experiment: biochemical, Yeast. The procedure: In this study, each compound was initially tested at 100 μg/mL.
as §1

On to `COc1cc2c3c(c1O)CCc1cc(OC)c(OC)c(c1-3)OC21c2cccc(O)c2-c2c1cc(OC)c(O)c2OC` (centres unmarked) [Compound 2, dendrogibsol], for which the “mode of α-glucosidase inhibition” value with α-glucosidase [1] is “noncompetitive”. For the same compound, on α-glucosidase [1] (from secondary plot of slopes of double-reciprocal lines), the affinity, expressed as Ki, was 20.4 µM. Besides, the Vmax with α-glucosidase [1] (inhibitor dose 11 μM, PNPG 0.25 to 2 mM) is reported as 0.086 ∆OD/min; with α-glucosidase [1] (inhibitor dose 22 μM, PNPG 0.25 to 2 mM), 0.052 ∆OD/min. Also, the Km worked out at 1230 µM in the experiment with α-glucosidase [1] (inhibitor dose 11 μM, PNPG 0.25 to 2 mM, read-out: Km); 1190 µM with α-glucosidase [1] (inhibitor dose 22 μM, PNPG 0.25 to 2 mM, read-out: Km); 1550 µM in the experiment with α-glucosidase [1] (with changing inhibitor concentration, dose not given, read-out: Km as stated in text). Also, the IC50 on α-glucosidase [2] came out at 19.8 ± 0.9 µM.

As to `COc1cc(O)c2c(c1)CCc1cc(O)ccc1-2` [Compound 7, lusianthridin], the half-maximal inhibitory concentration (IC50) on α-glucosidase [2] came out at 185 ± 6.9 µM.

In the case of `C[C@H]1O[C@H](O[C@H]2[C@H](O)[C@@H](O)[C@@H](O[C@H]3[C@H](O)[C@@H](O)C(O)O[C@@H]3CO)O[C@@H]2CO)[C@H](O)[C@@H](O)[C@@H]1N[C@H]1C=C(CO)[C@@H](O)[C@H](O)[C@H]1O` (some centres unmarked) [acarbose, reference compound], in the experiment on α-glucosidase [1], the “mode of α-glucosidase inhibition” value is “competitive”. In addition, the Vmax is 0.10 ∆OD/min with α-glucosidase [1] (inhibitor dose 465 μM, PNPG 0.25 to 2 mM) and 0.11 ∆OD/min in the experiment on α-glucosidase [1] (inhibitor dose 930 μM, PNPG 0.25 to 2 mM). The Km in the experiment with α-glucosidase [1] (inhibitor dose 465 μM, PNPG 0.25 to 2 mM, read-out: Km) came out at 6740 µM. Further, the “Vmax as stated in text” value in the experiment with α-glucosidase [1] (with changing inhibitor concentration, dose not given) is 0.11 ∆OD/min.

The term Ki denotes a measure of affinity in units of concentration, obtained from inhibition or displacement. Lower therefore signals higher affinity. As usually defined, the Km is the substrate concentration at which the rate is half of its maximum. As usually defined, the IC50 is the concentration at which inhibition is half-maximal.
